# Measured values from patent US4250321A, “1-Descarboxy-1-ketoester(ketoacid)-protaglandins” (American Cyanamid Company, priority 1979, dated 1981).
# Where two headings read alike, the source gives them in different places.
# Experiments:
# Type in all cases: in vivo
# [1] = tested on: bronchospasms elicited by intravenous injections of 5-hydroxytryptamine, histamine or acetylcholine; test: Bronchodilator activity in guinea pigs by the Konzett procedure; conditions: Cavia porcellus, guinea pig, three logarithmic cumulative intravenous doses
# Experimental: The compounds of this invention are useful as bronchodilators for the treatment of asthma and chronic bronchitis. Bronchodilator activity is determined in guinea pigs against bronchospasms elicited by intravenous injections of 5-hydroxytryptamine, histamine or acetylcholine by the Konzett procedure. [See J. Lulling, P. Lievens, F. El Sayed and J. Pringnot, Arzneimittel-Forschung, 18, 955 (1968).].
# In Table which follows bronchodilator activity for representative compounds of this invention against one or more of three spasmogenic agents is expressed as an ED50 determined from the results obtained with three logarithmic cummulative intravenous doses. In this assay, these compounds of this invention provide an effect of longer duration than does natural 1-PGE1 or 1-PGE2.
# [2] = tested on: histamine-stimulated gastric acid secretion; test: Gastric acid secretion in the dog, gastric fistula; conditions: 5 μg/Kg by stomach tube, i.v. histamine 40 μg/kg/hr
# Experimental: (§1) Experiments are carried out on six fasted female mongrel dogs, 3-7 years of age. Each had been provided with either a gastric fistula (4 dogs) or a Heidenhain pouch (2 dogs) using standard surgical techniques. Briefly, spool shaped cannulae of stainless steel (gastric fistual preparation) or titanium (Heidenhain pouch preparation) were inserted into narrow slits in the most dependent portion of the vertical stomach and retained in place by a purse-string suture. In the Heidenhain pouch preparation the slit made in a denervated sleeve of stomach which was isolated along the greater curvature. The cannulae were exteriorized through a trocar wound in the abdomen just left of midline and, as the purse string was tightened about the cannulae, the edges of the wound were inverted.
# The drug is administered at zero time through the smaller lumen of a double lumen Salen Sump Tube which has been placed transorally into the animal's stomach. The length is adjusted to reach from the mouth just to the cannula site. Five ml of saline are then flushed through the smaller lumen, followed by 5 ml of air. Immediately following 20-25 ml of saline are placed into the stomach through the larger lumen of the double lumen tube and the tube withdrawn.
# Thirty minutes after the drug is administered the gastric annula is opened, irrigated rapidly with 25-30 ml of saline 4 separate times and allowed to drain for 15 minutes.
# At the end of the drainage period, the intravenous histamine infusion is started ([…]) and the first 15 minutes collection period of gastric secretions via the cannula is begun. The collection is changed every 15 minutes. The volume of each 15 minute sample is measured and an aliquot titrated to pH 7 with 0.1 N NaOH using a Radiometer automatic titrator.
# ^1 Secretion is stimulated with intravenous histamine, 40 μg/kg/hr
# g/Kg) 45 minutes after administration of compound (5μg/Kg)? or vehicle
# (control) by stomach tube. Secretions are collected from fistula annula.
# [3] = tested on: histamine-stimulated gastric acid secretion; test: Gastric acid secretion in the dog, Heidenhain pouch; conditions: 5 μg/kg by stomach tube, i.v. histamine 40 μg/kg/hr
# Experimental: as §1
# The intravenous histamine infusion ([…]) is started. At the same time, the first gastric secretion collection is begun. these secretions are collected by gravity drainage through the Heidenhain pouch cannula. Separate gastric samples are collected every fifteen minutes. When the volumes of two successive samples are within 10% of each other (usually occuring by the end of the fourth period--after one hour of histamine infusion) the drug is given to the animal (time 0). The latter of the two samples is considered to be the control for that particular experiment. The drug is administered through the smaller lumen of a double lumen Salem Sump Tube which has been cut to a length equal to the mouth to stomach distance of the dog. Following administration of the drug, the narrow lumen is flushed first with […], followed by 5 ml of air. Twenty-five to 30 ml of saline is then introduced into the stomach through the larger lumen and the tube withdrawn. (Note: Samples of gastric juice are taken from the pouch, drug is administered into the main stomach). Aliquots of each 15 minute gastric sample are titrated to pH 7 with 0.1 N NaOH using a Radiometer automatic titrator.
# ^2 Secretion is stimulated with intravenous histamine, 40 μg/kg/hr
# and samples are collected through the pouch cannula at 15 minute
# intervals. When the volume of two successive samples are within 10% of
# each other, compound is administered (5 μg/kg) by stomach tube. The en
# of the latter two periods is considered as 0 time (control).
# [4] = bronchospasm by 5-hydroxytryptamine, read-out: ED50 5HT
# [5] = bronchospasm by acetylcholine, read-out: ED50 ACH
# [6] = bronchospasm by histamine, read-out: ED50 HIST.
Compound,"ED50 [1, 4] [µg/kg]","ED50 [1, 5] [µg/kg]","ED50 [1, 6] [µg/kg]","% INHIBITION ACID SECRETION, 45-60 minutes after compound [2] [%]","% INHIBITION ACID SECRETION, 60-75 minutes after compound [2] [%]","% INHIBITION ACID SECRETION, 75-90 minutes after compound [2] [%]","% INHIBITION ACID SECRETION, 90-105 minutes after compound [2] [%]","% INHIBITION ACID SECRETION, 105-120 minutes after compound [2] [%]","% INHIBITION ACID SECRETION, 0-15 minutes after compound ([3]; 0-15 min) [%]","% INHIBITION ACID SECRETION, 15-30 minutes after compound ([3]; 15-30 min) [%]","% INHIBITION ACID SECRETION, 30-45 minutes after compound ([3]; 30-45 min) [%]","% INHIBITION ACID SECRETION, 45-60 minutes after compound ([3]; 45-60 min) [%]","% INHIBITION ACID SECRETION, 60-75 minutes after compound ([3]; 60-75 min) [%]"
"CCCCC(C)(O)C/C=C/[C@H]1[C@H](O)CC(=O)[C@@H]1C/C=C\CCCC(=O)C(=O)OCC (relative stereo) [dl-1,9-Dioxo-1-carbethoxy-11α,16-dihydroxy-16-methyl-5-cis-13-trans-prostadiene]",9.51,5.92,9.31,96,62,59,56,47,–,–,–,–,–
"C=CC(O)(C/C=C/[C@H]1[C@H](O)CC(=O)[C@@H]1C/C=C\CCCC(=O)C(=O)OCC)CCCC (relative stereo) [dl-1,9-Dioxo-1-carbethoxy-11α,16-dihydroxy-16-vinyl-5-cis-13-trans-prostadiene]",0.665,3.41,2.26,–,–,–,–,–,–,–,–,–,–
"CCCCC(C)(O)C/C=C/[C@H]1[C@H](O)CC(=O)[C@@H]1CCCCCCC(=O)C(=O)OCC (relative stereo) [dl-1,9-dioxo-1-carbethoxy-11,16-dihydroxy-16-methyl-13-trans-prostene]",–,–,–,97,91,76,72,56,20,28,34,21,12
"CCCCCC(C)(O)/C=C/[C@H]1[C@H](O)CC(=O)[C@@H]1CCCCCCC(=O)C(=O)OCC (relative stereo) [dl-1,9-dioxo-1-carbethoxy-11α,15-dihydroxy-15-methyl-13-trans-prostene]",4.22,–,6.05,–,–,–,–,–,–,–,–,–,–
